# Experimental data taken from ChEMBL document CHEMBL3045961, “Synthesis and evaluation of some pyrimidine analogs against toxoplasmosis” (Med Chem Res, 2008).
# pIC50: −log10 of the molar value. Active and inactive are the calls of the source. The rule behind the calls is not given here.
# How the values were obtained:
# [1] = test system: Toxoplasma gondii; test: Antiparasitic activity Toxoplasma gondii RH infected Swiss albino mouse assessed as decrease in host spleen white pulp at 0.25 mg, po administered 48 hr post-infection measured after 3 days by haematoxylin and eosin staining relative to control; assay type: functional, organism-based
# [2] = test system: Toxoplasma gondii; test: Antiparasitic activity Toxoplasma gondii RH infected Swiss albino mouse assessed as decrease in host liver necrosis at 0.25 mg, po administered 48 hr post-infection measured after 3 days by haematoxylin and eosin staining relative to control; assay type: functional, organism-based
# [3] = test system: Toxoplasma gondii; test: Antiparasitic activity Toxoplasma gondii RH infected Swiss albino mouse assessed as decreased parasite movement in host peritoneal exudate at 0.25 mg, po administered 48 hr post-infection measured after 3 days by light microscopic analysis; assay type: functional, organism-based
# [4] = test system: Toxoplasma gondii; test: Antiparasitic activity Toxoplasma gondii RH infected Swiss albino mouse assessed as decrease in host lung congestion at 0.25 mg, po administered 48 hr post-infection measured after 3 days by haematoxylin and eosin staining relative to control; assay type: functional, organism-based
# [5] = test system: Toxoplasma gondii; test: Antiparasitic activity Toxoplasma gondii RH infected Swiss albino mouse assessed as decrease in interstitial pneumonia at 0.25 mg, po administered 48 hr post-infection measured after 3 days by haematoxylin and eosin staining relative to control; assay type: functional, organism-based
# [6] = test system: Toxoplasma gondii; test: Antiparasitic activity Toxoplasma gondii RH infected Swiss albino mouse assessed as increase in host spleen red pulp at 0.25 mg, po administered 48 hr post-infection measured after 3 days by haematoxylin and eosin staining relative to control; assay type: functional, organism-based
# [7] = test system: Toxoplasma gondii; test: Antiparasitic activity Toxoplasma gondii RH infected Swiss albino mouse assessed as megakaryocytes in host spleen at 0.25 mg, po administered 48 hr post-infection measured after 3 days by haematoxylin and eosin staining relative to control; assay type: functional, organism-based
# [8] = target: T1, Bifunctional dihydrofolate reductase-thymidylate synthase (Cryptosporidium parvum, UniProt Q27552); test: Inhibition of Cryptosporidium parvum recombinant DHFR using dihydrofolate as substrate incubated for 5 min prior to substrate addition by spectrophotometric assay
# T1 sequence (Q27552 whole entry): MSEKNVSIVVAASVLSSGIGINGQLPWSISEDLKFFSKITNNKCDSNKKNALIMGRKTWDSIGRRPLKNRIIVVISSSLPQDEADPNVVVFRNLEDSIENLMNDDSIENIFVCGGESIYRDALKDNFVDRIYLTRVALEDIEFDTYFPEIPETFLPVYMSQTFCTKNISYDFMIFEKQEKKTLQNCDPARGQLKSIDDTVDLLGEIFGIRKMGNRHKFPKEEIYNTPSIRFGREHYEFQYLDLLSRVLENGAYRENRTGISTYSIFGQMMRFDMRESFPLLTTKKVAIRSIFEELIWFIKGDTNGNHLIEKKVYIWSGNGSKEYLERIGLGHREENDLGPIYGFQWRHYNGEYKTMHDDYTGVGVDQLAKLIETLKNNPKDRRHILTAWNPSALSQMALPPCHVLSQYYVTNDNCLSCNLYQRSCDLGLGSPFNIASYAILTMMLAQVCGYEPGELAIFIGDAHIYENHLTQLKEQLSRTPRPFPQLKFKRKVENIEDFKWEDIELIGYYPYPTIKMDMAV
# [9] = test system: Toxoplasma gondii; test: Antiparasitic activity against Toxoplasma gondii RH infected Swiss albino mouse assessed as decrease in tachozyte count in liver at 0.25 mg, po administered 48 hr post-infection measured after 3 days by Geimsa staining relative to control; assay type: functional, organism-based
# [10] = test system: Toxoplasma gondii; test: Antiparasitic activity Toxoplasma gondii RH infected Swiss albino mouse assessed as decrease in host spleen necrosis at 0.25 mg, po administered 48 hr post-infection measured after 3 days by haematoxylin and eosin staining relative to control; assay type: functional, organism-based
# [11] = test system: Toxoplasma gondii; test: Antiparasitic activity Toxoplasma gondii RH infected Swiss albino mouse assessed as extramedullary hematopoiesis in host spleen at 0.25 mg, po administered 48 hr post-infection measured after 3 days by haematoxylin and eosin staining relative to control; assay type: functional, organism-based
# [12] = test system: Toxoplasma gondii; test: Antiparasitic activity Toxoplasma gondii RH infected Swiss albino mouse assessed as epethelioid granuloma in host spleen at 0.25 mg, po administered 48 hr post-infection measured after 3 days by haematoxylin and eosin staining relative to control; assay type: functional, organism-based
# [13] = test system: Toxoplasma gondii; test: Antiparasitic activity Toxoplasma gondii RH infected Swiss albino mouse assessed as clear lymphocytes in host liver focal granuloma at 0.25 mg, po administered 48 hr post-infection measured after 3 days by haematoxylin and eosin staining relative to control; assay type: functional, organism-based
# [14] = test system: Toxoplasma gondii; test: Antiparasitic activity against Toxoplasma gondii RH infected Swiss albino mouse assessed as decrease in tachozyte count in spleen at 0.25 mg, po administered 48 hr post-infection measured after 3 days by Geimsa staining relative to control; assay type: functional, organism-based
# [15] = test system: Toxoplasma gondii; test: Antiparasitic activity Toxoplasma gondii RH infected Swiss albino mouse assessed as clear mononuclear cells in host liver focal granuloma at 0.25 mg, po administered 48 hr post-infection measured after 3 days by haematoxylin and eosin staining relative to control; assay type: functional, organism-based
# [16] = test system: Toxoplasma gondii; test: Antiparasitic activity Toxoplasma gondii RH infected Swiss albino mouse assessed as decrease in Toxoplasma antigen in host serum at 0.25 mg, po administered 48 hr post-infection measured after 3 days by Co-A test relative to control; assay type: functional, organism-based
# [17] = target: T2, Dihydrofolate reductase (Homo sapiens, UniProt P00374); test: Inhibition of Homo sapiens (human) dihydrofolate reductase using dihydrofolate as substrate incubated for 5 min prior to substrate addition by spectrophotometric assay
# T2 sequence (P00374 whole entry): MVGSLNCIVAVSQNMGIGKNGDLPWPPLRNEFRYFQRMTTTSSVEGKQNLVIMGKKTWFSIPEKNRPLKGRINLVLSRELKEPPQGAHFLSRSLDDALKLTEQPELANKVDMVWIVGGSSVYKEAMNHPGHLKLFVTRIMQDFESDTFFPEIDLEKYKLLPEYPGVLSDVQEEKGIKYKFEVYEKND
# [18] = test system: Toxoplasma gondii; test: Antiparasitic activity Toxoplasma gondii RH infected Swiss albino mouse assessed as parasite deformity in host peritoneal exudate at 0.25 mg, po administered 48 hr post-infection measured after 3 days by light microscopic analysis; assay type: functional, organism-based
# [19] = test system: Toxoplasma gondii; test: Antiparasitic activity Toxoplasma gondii RH infected Swiss albino mouse assessed as multiple deep ridged parasite surface in host peritoneal exudate at 0.25 mg, po administered 48 hr post-infection measured after 3 days by scanning electron microscopic analysis; assay type: functional, organism-based
# [20] = target: T3, Bifunctional dihydrofolate reductase-thymidylate synthase (Cryptosporidium parvum) (UniProt Q27552); test: Ratio of trimethorpin IC50 to compound IC50 for Cryptosporidium parvum recombinant DHFR
# T3 sequence (whole entry): T1 sequence (Q27552 whole entry)
# [21] = test system: Toxoplasma gondii; test: Antiparasitic activity Toxoplasma gondii RH infected Swiss albino mouse assessed as elongated tachyzoites in host peritoneal exudate at 0.25 mg, po administered 48 hr post-infection measured after 3 days by scanning electron microscopic analysis; assay type: functional, organism-based
# [22] = test system: Toxoplasma gondii; test: Antiparasitic activity Toxoplasma gondii RH infected Swiss albino mouse assessed as decrease in tachyzoites end tapering in host peritoneal exudate at 0.25 mg, po administered 48 hr post-infection measured after 3 days by scanning electron microscopic analysis; assay type: functional, organism-based
# [23] = test system: Toxoplasma gondii; test: Antiparasitic activity Toxoplasma gondii RH infected Swiss albino mouse assessed as loss of parasite crescent shape in host peritoneal exudate at 0.25 mg, po administered 48 hr post-infection measured after 3 days by scanning electron microscopic analysis; assay type: functional, organism-based
# [24] = test system: Toxoplasma gondii; test: Antiparasitic activity Toxoplasma gondii RH infected Swiss albino mouse assessed as disorganised parasite conoid in host peritoneal exudate at 0.25 mg, po administered 48 hr post-infection measured after 3 days by scanning electron microscopic analysis; assay type: functional, organism-based
SMILES,pIC50 [8],pIC50 [17],Activity [1],Activity [2],Activity [3],Activity [4],Activity [5],Activity [6],Activity [7],Activity [9],Activity [10],Activity [11],Activity [12],Activity [13],Activity [14],Activity [15],Activity [16],Activity [18],also measured
CCOC(=O)C1=C(C)NC(=S)NC1c1ccccc1 (stereo not given),5.33,6.24,inactive,inactive,inactive,inactive,inactive,inactive,inactive,inactive,inactive,inactive,inactive,inactive,inactive,inactive,inactive,inactive,
CCOC(=O)C1=C(C)NC(=S)NC1c1ccccc1OC (stereo not given),5.62,5.72,inactive,inactive,inactive,inactive,inactive,inactive,inactive,inactive,inactive,inactive,inactive,inactive,inactive,inactive,inactive,inactive,
CCOC(=O)C1=C(C)N=C(SCC(=O)c2ccc(Cl)c([N+](=O)[O-])c2)NC1c1ccccc1 (stereo not given),5.64,5.52,inactive,inactive,inactive,inactive,inactive,inactive,inactive,inactive,inactive,inactive,inactive,inactive,inactive,inactive,inactive,inactive,
CCOC(=O)C1=C(C)NC(S/C(=C\c2ccc(OC)cc2)C(=O)OCC)=NC1c1ccccc1 (stereo not given),7.42,8.00,Active,Active,Active,inactive,Active,Active,Active,Active,Active,Active,inactive,Active,Active,Active,Active,Active,Activity [19]: Active; Ratio IC50 [20]: 40
COc1cc(Cc2cnc(N)nc2N)cc(OC)c1OC [TRIMETHOPRIM],5.40,,,,,,,,,,,,,,,,,,
CC(=O)C1=C(C)N=C(SCCC(=O)O)NC1c1ccccc1 (stereo not given),7.57,8.89,Active,Active,Active,inactive,Active,Active,inactive,Active,Active,inactive,Active,Active,Active,Active,Active,Active,Activity [21]: Active; Activity [22]: Active; Activity [23]: Active; Activity [24]: Active; Ratio IC50 [20]: 40

# Continued, in another order:
pIC50 [8],pIC50 [17],SMILES,Activity [1],Activity [2],Activity [3],Activity [4],Activity [5],Activity [6],Activity [7],Activity [9],Activity [10],Activity [11],Activity [12],Activity [13],Activity [14],Activity [15],Activity [16],Activity [18],also measured
5.12,5.03,CC(=O)C1=C(C)NC(=S)NC1c1cccc(O)c1 (stereo not given),inactive,inactive,inactive,inactive,inactive,inactive,inactive,inactive,inactive,inactive,inactive,inactive,inactive,inactive,inactive,inactive,
5.68,5.54,CCOC(=O)C1=C(C)NC(=S)NC1/C=C\c1ccccc1 (stereo not given),inactive,inactive,inactive,inactive,inactive,inactive,inactive,inactive,inactive,inactive,inactive,inactive,inactive,inactive,inactive,inactive,
5.49,6.08,CCOC(=O)CSC1=NC(c2ccccc2)C(C(=O)OCC)=C(C)N1 (stereo not given),inactive,inactive,inactive,inactive,inactive,inactive,inactive,inactive,inactive,inactive,inactive,inactive,inactive,inactive,inactive,inactive,
5.29,5.14,CCOC(=O)CSC1=NC(c2ccccc2OC)C(C(=O)OCC)=C(C)N1 (stereo not given),inactive,inactive,inactive,inactive,inactive,inactive,inactive,inactive,inactive,inactive,inactive,inactive,inactive,inactive,inactive,inactive,
